For 13 compounds, IC50 results are on record in US20160046616A1, “NRF2 SMALL MOLECULE INHIBITORS FOR CANCER THERAPY” (THE JOHNS HOPKINS UNIVERSITY, priority 2013, published 2016).

Some results are limits rather than exact numbers.

Common to all, as to type: cell-based
In assay [1] the test system is H838 NRF2-ARE-Fluc stable cell line. Briefly: H838 Nrf2 assay: NRF2-ARE firefly luciferase reporter gene assay. The conditions noted are these: Homo sapiens, NCI-H838, read-out: Potency of inhibition, H838. From the text: H838 is a NSCLC cell line with LOF Keap1 activity and constitutive translocation of NRF2 into the nucleus. A firefly luciferase reporter construct driven by a minimal promoter of NRF2-specific ARE is stably expressed in the H838 cells. This cell line was used as a confirmation assay to make sure hits identified from primary screening and that passed counterscreen assays worked in different cell types with a constitutively active NRF2 pathway (deficiency in Keap1).
This assay was very similar to the primary assay except that the cell line was changed. […] The final concentration of DMSO was maintained at 0.46%. Control compounds Budesonide and Staurosporine were both added at a concentration of 2 mM and Budesonide was also added as a 1:10 titration, starting at 200 μM, to achieve dose-response. After an 18-24 hour incubation at 37° C., 95% humidity, and 5% CO2, 1 μL of 5× CellTiter-Fluor non-lytic cell viability assay reagent (Promega, Madison Wis.) was added into the each well of the plates. The plates were then incubated for 30 minutes at room temperature before they were read on a ViewLux plate imager (Perkin Elmer, Waltham Mass.) using an excitation wavelength of 405 nm and an emission wavelength of 525 nm.
Representative compounds were assayed to assess the potency of inhibition in an A549 NRF2-ARE-Fluc stable cell line (A549 Nrf2 assay), in an H838 NRF2-ARE-Fluc stable cell line (H838 Nrf2 assay), and in an H1437 NRF2-ARE-Fluc stable cell line (H1437 Nrf2 assay) (see Table 3).
In general terms: A reporter such as luciferase makes a cellular process visible.

For assay [2], the system named is H1437 NRF2-ARE-Fluc stable cell line. Briefly: H1437 Nrf2 assay: NRF2-ARE firefly luciferase reporter gene assay. Conditions: Homo sapiens, NCI-H1437, H1437 NRF2-ARE-Fluc stable cell line; read-out: Potency of inhibition, H1437.
Assay [3] relates to A549 NRF2-ARE-Fluc stable cell line. Briefly: A549 Nrf2 assay: NRF2-ARE firefly luciferase reporter gene assay. Conditions: Homo sapiens, read-out: Potency of inhibition, A549. The gist of the method: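 A549 cells (Keap1 loss-of-function, constitutive NRF2) stably carrying ARE-driven firefly luciferase; compound treatment 18–24 h at 37 °C, 0.46% DMSO final.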

Take `Cc1ccc(C(=O)Nc2nc(-c3ccccn3)cs2)cc1S(=O)(=O)N1CCOCC1` [Compound 50]: the IC50 in assay [1] is more than 25 µM; in assay [2], more than 25 µM; in assay [3], less than 5 µM.
As for `O=C(Nc1ccc(S(=O)(=O)N2CCOCC2)cc1)c1ccc(CN2CCc3ccccc3C2)cc1` [Compound 48], the IC50 in assay [1] is more than 25 µM; in assay [2] it was 5 to 25 µM; in assay [3] it was less than 5 µM.
The matching figures for `COc1ccccc1C(=O)Nc1nc(-c2ccc(S(=O)(=O)N3CCOCC3)cc2)cs1` [Compound 47]: less than 5 µM, less than 5 µM and less than 5 µM.
The matching figures for `CCN(CC)S(=O)(=O)c1cccc(NC(=O)CNc2cccc(S(=O)(=O)N3CCOCC3)c2)c1` [Compound 49]: more than 25 µM, less than 5 µM and less than 5 µM.
As to `Cc1sc(NC(=O)Cc2ccc3c(c2)OCO3)nc1-c1ccc2c(c1)CCN2C` [Compound 26], the IC50 is more than 25 µM in assay [2] and 5 to 25 µM in assay [3].
The matching figures for `Cc1ccc(Cc2cnc(NC(=O)c3ccn(-c4ccccc4)n3)s2)o1` [Compound 213]: 5 to 25 µM and 5 to 25 µM.
Consider `COc1ccc(CC(=O)Nc2nc(-c3ccc4c(c3)CCN4C(=O)c3ccc(C4(C(F)(F)F)N=N4)cc3)c(C)s2)cc1` [Compound 233], for which the IC50 in assay [2] and in assay [3] was 5 to 25 µM each time.
Take `CCN(CC)C(=O)c1ccc(S(=O)(=O)N2CCC(c3nc4ccccc4s3)CC2)cc1` [Compound 37]: the IC50 in assay [2] and in assay [3] was less than 5 µM in each case.
For the compound `COCCN(C)S(=O)(=O)c1ccc(NC(=O)c2ccc(CN3CCc4ccccc4C3)cc2)cc1` [compound 174], the results for the IC50 in assay [2] and in assay [3] were more than 25 µM and less than 5 µM, respectively.
In the case of `O=C(Nc1ccc(C(=O)N2CCOCC2)cc1)c1ccc(CN2CCc3ccccc3C2)cc1` [compound 147], the IC50 in assay [2] was more than 25 µM; in assay [3], 5 to 25 µM.
The matching figures for `O=C(O)c1ccc(CN2CCc3ccccc3C2)cc1` [Compound 90, 4-((3,4-dihydroisoquinolin-2(1H)-yl)methyl)benzoic acid]: more than 25 µM and more than 25 µM.
The matching figures for `CCc1ccccc1C(=O)N1CCc2cc(-c3nc(NC(=O)Cc4ccc5c(c4)OCO5)sc3C)ccc21` [Compound 113]: more than 25 µM and less than 5 µM.
The matching figures for `O=C(Nc1nc(Cc2ccccc2)cs1)c1ccc(-c2cccc([N+](=O)[O-])c2)o1` [Compound 85]: more than 25 µM and 5 to 25 µM.
